According to the supplement of paper PMC10307832:

Key:
Assay in all cases: relative viability (nuclei count vs DMSO), 5 days (fraction); higher = more cells survive
[1] = compound: CC[C@@H](C)CNCC(=O)N1CCC2=C([C@@H]1COC3=CC=CC(=C3)C)C=CS2 [RU-SKI 43] + NC(=O)Nc1cc(-c2cccc(F)c2)sc1C(=O)N[C@H]1CCCNC1 [AZD7762] (partner 0.2 µM)
In short: (§1)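 Relative viability was taken as the ratio of nuclei in treated wells to nuclei in vehicle wells. Lung cancer cell lines in 1536-well plates received compounds by pin tool one day after seeding, either one drug alone or a fixed anchor-drug dose plus five library-drug doses (not always all listed) in √10 steps. Nuclei were counted on 4× images after 5 days of treatment, and values are medians of duplicate plates.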

[2] = compound: CCc1c2c(nc3ccc(OC(=O)N4CCC(N5CCCCC5)CC4)cc13)-c1cc3c(c(=O)n1C2)COC(=O)[C@]3(O)CC [Irinotecan] + CC(=O)c1c(C)c2cnc(Nc3ccc(N4CCNCC4)cn3)nc2n(C2CCCC2)c1=O [Palbociclib] (partner 0.5 µM)
In short: as §1

[3] = compound: Cn1cc(-c2cnc3ccc4ccc(CS(=O)(=O)NCc5ccccn5)cc4c(=O)c3c2)cn1 [MK-8033] + CC(=O)c1c(C)c2cnc(Nc3ccc(N4CCNCC4)cn3)nc2n(C2CCCC2)c1=O [Palbociclib] (partner 0.5 µM)
In short: as §1

[4] = compound: CC[C@@H](C)CNCC(=O)N1CCC2=C([C@@H]1COC3=CC=CC(=C3)C)C=CS2 [RU-SKI 43] + CC1(C)CCC(c2ccc(Cl)cc2)=C(CN2CCN(c3ccc(C(=O)NS(=O)(=O)c4ccc(N[C@H](CCN5CCOCC5)CSc5ccccc5)c(S(=O)(=O)C(F)(F)F)c4)cc3)CC2)C1 [Navitoclax] (partner 0.5 µM)
In short: as §1

Cell Line | relative viability ([1]; first compound 0.1 µM) | relative viability ([1]; first compound 0.3162 µM) | relative viability ([1]; first compound 1 µM) | relative viability ([1]; first compound 3.162 µM) | relative viability ([1]; first compound 10 µM) | relative viability ([2]; first compound 0.6325 µM) | relative viability ([2]; first compound 2 µM) | relative viability ([2]; first compound 6.325 µM) | relative viability ([2]; first compound 20 µM) | relative viability ([3]; first compound 0.02 µM) | relative viability ([3]; first compound 0.06325 µM) | relative viability ([3]; first compound 0.2 µM) | relative viability ([3]; first compound 0.6325 µM) | relative viability ([3]; first compound 2 µM) | relative viability ([4]; first compound 0.1 µM) | relative viability ([4]; first compound 0.3162 µM) | relative viability ([4]; first compound 1 µM) | relative viability ([4]; first compound 3.162 µM) | relative viability ([4]; first compound 10 µM)
NCI-H522 | 0.918 | 0.984 | 1.04 | 0.859 | 0.853 | 0.872 | 0.585 | 0.413 | 0.475 | 0.968 | 0.96 | 1 | 0.968 | 1.18 |  |  |  |  | 
NCI-H358 | 0.475 | 0.585 | 0.574 | 0.591 | 0.484 | 0.123 | 0.143 | 0.108 | 0.0947 | 0.144 | 0.129 | 0.128 | 0.136 | 0.151 |  |  |  |  | 
NCI-H1755 | 0.42 | 0.504 | 0.46 | 0.411 | 0.359 | 0.405 | 0.446 | 0.438 | 0.486 | 0.452 | 0.452 | 0.413 | 0.464 | 0.417 | 1.04 | 1.14 | 1.06 | 1.06 | 1.05
LCLC-103H | 0.832 | 0.804 | 0.788 | 0.821 | 0.763 | 0.452 | 0.412 | 0.446 | 0.5 | 0.514 | 0.51 | 0.47 | 0.295 | 0.491 |  |  |  |  | 
HOP-62 | 0.463 | 0.643 | 0.71 | 0.704 | 0.529 | 0.211 | 0.202 | 0.187 | 0.22 | 0.469 | 0.41 | 0.425 | 0.496 | 0.446 | 1.22 | 1.26 | 1.21 | 1.14 | 1.06
HCC-78 | 0.716 | 0.638 | 0.85 | 0.6 | 0.695 | 0.474 | 0.363 | 0.37 | 0.347 | 0.516 | 0.63 | 0.451 | 0.514 | 0.511 | 0.758 | 0.96 | 1.03 | 0.834 | 0.772
NCI-H650 | 0.944 | 1.09 |  | 1.04 | 1.06 | 0.188 | 0.195 | 0.19 | 0.257 | 0.346 | 0.316 | 0.324 | 0.316 | 0.307 |  |  |  |  | 
ABC-1 | 0.894 | 0.867 | 1.2 | 0.727 | 0.957 |  | 0.628 | 0.506 | 0.358 | 0.664 | 0.733 | 0.591 | 0.724 | 0.646 |  |  |  |  | 
Calu-6 |  |  |  |  |  |  |  |  |  |  |  |  |  |  | 0.848 | 0.977 | 0.72 | 0.955 | 0.691
EBC-1 |  |  |  |  |  |  |  |  |  |  |  |  |  |  | 0.358 | 0.294 | 0.401 | 0.366 | 0.223
NCI-H520 |  |  |  |  |  | 0.224 | 0.242 | 0.214 | 0.146 | 0.209 | 0.231 | 0.184 | 0.254 | 0.205 | 1.08 | 1.42 | 1.28 | 1.08 | 1.03
NCI-H322M | 0.57 | 0.561 | 0.474 | 0.624 | 0.465 | 0.527 | 0.502 | 0.458 | 0.336 | 0.531 | 0.443 | 0.45 | 0.49 | 0.433 | 1.15 | 1.4 | 1.23 | 1.39 | 1.15
201T | 0.628 | 0.603 | 0.602 | 0.531 | 0.567 | 0.403 | 0.343 | 0.265 | 0.22 | 0.329 | 0.37 | 0.356 | 0.369 | 0.367 | 1.2 | 1.18 | 1.21 | 1.19 | 1.18
RERF-LC-KJ | 0.97 | 1.01 | 1.21 | 1.17 | 1.04 | 1.02 | 0.819 | 0.405 | 0.265 | 1.11 | 1.07 | 1.01 | 1.08 | 1.08 | 1.07 | 1.29 | 1.09 | 1.21 | 0.9
A549 |  |  |  |  |  |  |  |  |  |  |  |  |  |  | 1.24 | 1.51 | 1.17 | 1.23 | 1.08
NCI-H1648 | 0.502 | 0.626 | 0.656 | 0.694 | 0.628 | 0.254 | 0.303 | 0.346 | 0.355 | 0.243 |  | 0.296 | 0.299 | 0.258 |  |  |  |  | 
NCI-H1651 | 0.506 | 0.467 | 0.549 | 0.535 | 0.456 | 0.529 | 0.491 | 0.305 | 0.162 | 0.51 | 0.498 | 0.514 | 0.536 | 0.521 | 1.05 | 1.24 | 1.14 | 1.01 | 1.01
NCI-H2405 | 0.801 | 0.83 | 0.876 | 0.84 | 0.452 |  | 0.547 | 0.305 | 0.143 | 0.515 | 0.505 | 0.512 | 0.514 | 0.555 | 0.797 | 0.867 | 0.627 | 0.74 | 0.711
NCI-H727 |  | 0.707 | 0.724 | 0.638 | 0.543 | 0.665 | 0.412 | 0.52 | 0.653 | 0.668 | 0.617 | 0.653 | 0.612 | 0.657 | 0.305 | 0.355 | 0.397 | 0.35 | 0.358
EMC-BAC-2 | 1.1 | 1.1 | 1.27 | 1.13 | 1.09 | 0.387 | 0.346 | 0.337 | 0.248 | 0.519 | 0.485 | 0.528 | 0.511 | 0.505 | 1.14 | 1.57 | 1.21 | 1.26 | 1.15
ChaGo-K-1 | 0.877 | 1.04 | 0.836 | 0.921 | 0.801 | 0.256 | 0.247 | 0.22 | 0.203 | 0.981 | 0.937 | 0.872 | 0.974 | 0.75 | 1.26 | 0.996 | 1.58 | 0.569 | 0.742
